# Test: Pharmacokinetics in clinical studies, plasma level
# Conditions: human subjects, administered in vivo in clinical studies
smiles,measurement,value
"CCN(CC)CCN(Cc1ccc(-c2ccc(C(F)(F)F)cc2)cc1)C(=O)Cn1c(SCc2ccc(F)cc2)nc(=O)c2c1CCC2 [Formula II, -(N-(2-(Diethylamino)ethyl)-N-(4-(4-trifluoromethylphenyl)benzyl)-aminocarbonylmethyl)-2-(4-fluorobenzyl)thio-5,6-trimethylenepyrimidin-4-one bitartrate]",peak plasma level,90 ng/mL
